In ChEMBL document CHEMBL5338724, “METTL3 from Target Validation to the First Small-Molecule Inhibitors: A Medicinal Chemistry Journey” (J Med Chem, 2023):
pEC50, pIC50: −log10 of the molar value. Values belong to the molecule of their own block, whether it stands above or below them.

Columns and labels:
METTL3/METTL14 [1] = biological target: T1, METTL3/METTL14 (Homo sapiens, UniProt Q86U44); assay: Inhibition of METTL3/METTL14 (unknown origin) using biotinylated RNA (UCUGGACUAAA-biotin) and 3H-SAM as substrate preincubated for 5 mins followed by substrate addition and measured after 30 mins by scintillation counter analysis; format: protein-complex assay
MOLM-13 [2] = assay: Antiproliferative activity against human MOLM-13 cells assessed as inhibition of cell proliferation incubated for 96 hrs by Cell Titer-Glo reagent assay; format: functional, cell-based; conditions: MOLM-13, 96 h
[3] = biological target: N6-adenosine-methyltransferase catalytic subunit (Homo sapiens, UniProt Q86U44); assay: Inhibition of METTL3 in human MOLM-13 cells assessed as decrease in cellular m6A mRNA level incubated for 24 hrs by NanoDrop spectrophotometer based LC-MS/MS analysis; format: cell-based
MOLM-13 [4] = assay: Antiproliferative activity against human MOLM-13 cells assessed as inhibition of cell proliferation incubated for 48 hrs by Cell Titer-Glo reagent assay; format: functional, cell-based; conditions: MOLM-13, 48 h
OCI-AML2 = assay: cells; conditions: Homo sapiens, OCI-AML2, 168 h
NOMO-1 = assay: cells; conditions: Homo sapiens, NOMO-1, 168 h
Kasumi 1 [5] = assay: cells; conditions: Homo sapiens, Kasumi 1, 168 h
EOL1 = assay: cells; conditions: Homo sapiens, EOL1, 168 h
HL-60 [6] = assay: cells; conditions: Homo sapiens, HL-60, 168 h
MOLM-13 [7] = assay: Antiproliferative activity against human MOLM-13 cells assessed as inhibition of cell proliferation and measured after 7 days by CellTiter-Glo assay; format: functional, cell-based; conditions: MOLM-13, 168 h
OCI-AML-3 = assay: cells; conditions: Homo sapiens, OCI-AML-3, 168 h
METTL3/METTL14 [8] = biological target: T1, METTL3/METTL14; assay: Inhibition of METTL3/METTL14 (unknown origin) using RNA 5'-GGACUGGACUGGACU-3' as substrate incubated for 2 hrs by LC-MS/MS analysis; format: protein-complex assay
METTL3/METTL14 [9] = biological target: T1, METTL3/METTL14; assay: Inhibition of full-length His-tagged METTL3/full length FLAG-tagged METTL14 (unknown origin) expressed in baculovirus expression system using synthetic RNA 5'P-uacacucgaucuggacuaaagcugcuc-3' and SAM as substrate preincubated for 10 mins followed by substrate addition and measured after 60 mins by RF/MS analysis
[10] = biological target: METTL3/METTL14 (Homo sapiens) (UniProt Q86U44+Q9HCE5); assay: Inhibition of METTL3/METTL14 (unknown origin) at 60 uM relative to control; format: protein-complex assay
MOLM-13 [11] = assay: Antiproliferative activity against human MOLM-13 cells assessed as decrease cell proliferation; format: functional, cell-based
METTL3/METTL14 [12] = biological target: T1, METTL3/METTL14; assay: Inhibition of METTL3/METTL14 (unknown origin); format: protein-complex assay
Kasumi 1 [13] = assay: Antiproliferative activity against human Kasumi 1 cells assessed as inhibition of cell proliferation incubated for 120 hrs by CellTiter-Glo assay; format: functional, cell-based; conditions: Kasumi 1, 120 h
Caov-3 cell line = assay: Antiproliferative activity against human Caov-3 cell line assessed as inhibition of cell proliferation incubated for 120 hrs by CellTiter-Glo assay; format: functional, cell-based; conditions: Caov-3, 120 h
HL-60 [14] = assay: Antiproliferative activity against human HL-60 cells assessed as cell growth inhibition; format: functional
METTL3/METTL14 [15] = biological target: T1, METTL3/METTL14
MOLM-13 [16] = assay: Antiproliferative activity against human MOLM-13 cells assessed as cell growth inhibition; format: functional
MOLM-14 = assay: Antiproliferative activity against human MOLM-14 cells assessed as cell growth inhibition; format: functional
THP-1 = assay: Antiproliferative activity against human THP-1 cells assessed as cell growth inhibition; format: functional
[17] = biological target: Histone-lysine N-methyltransferase 2B (Homo sapiens) (UniProt Q9UMN6); assay: Inhibition of MLL4 (unknown origin) at 10 uM relative to control
METTL3/METTL14 [18] = biological target: T1, METTL3/METTL14; assay: Inhibition of METTL3/METTL14 (unknown origin) by bioluminescence assay; format: protein-complex assay
[19] = biological target: Histone-lysine N-methyltransferase PRDM9 (Homo sapiens) (UniProt Q9NQV7); assay: Inhibition of PRDM9 (unknown origin) at 10 uM relative to control
Histone-lysine N-methyltransferase PRDM9 (Homo sapiens), sequence (Q9NQV7 whole entry): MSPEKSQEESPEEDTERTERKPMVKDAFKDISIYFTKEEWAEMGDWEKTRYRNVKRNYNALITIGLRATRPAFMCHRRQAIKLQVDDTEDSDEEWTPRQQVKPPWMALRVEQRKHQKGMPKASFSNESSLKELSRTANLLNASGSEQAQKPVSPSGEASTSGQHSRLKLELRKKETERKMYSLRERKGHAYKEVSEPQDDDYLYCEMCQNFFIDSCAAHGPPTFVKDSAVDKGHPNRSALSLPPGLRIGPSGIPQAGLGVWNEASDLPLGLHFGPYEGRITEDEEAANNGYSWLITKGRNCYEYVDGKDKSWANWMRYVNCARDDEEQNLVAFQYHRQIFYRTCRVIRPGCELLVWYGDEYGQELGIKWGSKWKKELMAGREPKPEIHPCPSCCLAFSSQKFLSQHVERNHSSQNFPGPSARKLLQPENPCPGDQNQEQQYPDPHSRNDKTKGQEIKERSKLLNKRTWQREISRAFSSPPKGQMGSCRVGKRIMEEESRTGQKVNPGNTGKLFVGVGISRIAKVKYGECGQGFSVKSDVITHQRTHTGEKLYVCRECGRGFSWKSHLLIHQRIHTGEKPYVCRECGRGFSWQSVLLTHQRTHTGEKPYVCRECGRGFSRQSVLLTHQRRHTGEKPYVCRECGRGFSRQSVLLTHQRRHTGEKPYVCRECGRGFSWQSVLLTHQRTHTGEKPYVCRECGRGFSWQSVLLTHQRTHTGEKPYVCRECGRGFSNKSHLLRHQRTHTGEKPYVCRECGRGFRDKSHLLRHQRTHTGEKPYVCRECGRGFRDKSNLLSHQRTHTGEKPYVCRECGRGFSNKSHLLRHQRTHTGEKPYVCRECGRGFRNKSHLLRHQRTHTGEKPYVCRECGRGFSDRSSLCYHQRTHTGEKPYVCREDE

N6-adenosine-methyltransferase catalytic subunit, sequence (Q86U44 whole entry): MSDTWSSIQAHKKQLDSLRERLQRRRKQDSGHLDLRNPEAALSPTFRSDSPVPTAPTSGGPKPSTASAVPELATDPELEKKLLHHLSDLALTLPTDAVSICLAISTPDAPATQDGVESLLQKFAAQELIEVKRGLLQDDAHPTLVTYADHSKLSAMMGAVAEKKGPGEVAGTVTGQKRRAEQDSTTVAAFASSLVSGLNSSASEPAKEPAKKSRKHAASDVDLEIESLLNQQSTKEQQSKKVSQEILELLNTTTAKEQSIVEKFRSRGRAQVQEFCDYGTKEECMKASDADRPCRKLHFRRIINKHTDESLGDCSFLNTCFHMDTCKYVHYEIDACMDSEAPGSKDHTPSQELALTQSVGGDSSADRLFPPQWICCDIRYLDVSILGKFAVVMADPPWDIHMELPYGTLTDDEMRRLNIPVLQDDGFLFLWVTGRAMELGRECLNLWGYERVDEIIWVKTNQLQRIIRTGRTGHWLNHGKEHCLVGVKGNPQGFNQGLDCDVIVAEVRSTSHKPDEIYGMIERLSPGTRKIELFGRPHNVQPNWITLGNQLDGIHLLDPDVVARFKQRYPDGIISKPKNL
T1 sequence (Q86U44 whole entry): as above
T1 sequence (Q9HCE5 whole entry, further chain): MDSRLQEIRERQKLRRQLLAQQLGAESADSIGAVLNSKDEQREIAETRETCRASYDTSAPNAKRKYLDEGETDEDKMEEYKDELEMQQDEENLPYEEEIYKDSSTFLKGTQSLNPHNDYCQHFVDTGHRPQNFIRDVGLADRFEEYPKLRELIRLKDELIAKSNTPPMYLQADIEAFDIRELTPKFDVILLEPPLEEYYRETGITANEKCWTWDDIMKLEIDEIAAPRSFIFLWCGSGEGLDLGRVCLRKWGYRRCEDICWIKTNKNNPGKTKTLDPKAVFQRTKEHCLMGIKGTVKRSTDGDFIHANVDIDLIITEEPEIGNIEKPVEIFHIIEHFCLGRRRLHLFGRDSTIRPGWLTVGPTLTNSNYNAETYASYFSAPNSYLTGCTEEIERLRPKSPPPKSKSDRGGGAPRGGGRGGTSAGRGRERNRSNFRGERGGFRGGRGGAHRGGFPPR
Histone-lysine N-methyltransferase 2B (Homo sapiens), sequence (Q9UMN6 whole entry): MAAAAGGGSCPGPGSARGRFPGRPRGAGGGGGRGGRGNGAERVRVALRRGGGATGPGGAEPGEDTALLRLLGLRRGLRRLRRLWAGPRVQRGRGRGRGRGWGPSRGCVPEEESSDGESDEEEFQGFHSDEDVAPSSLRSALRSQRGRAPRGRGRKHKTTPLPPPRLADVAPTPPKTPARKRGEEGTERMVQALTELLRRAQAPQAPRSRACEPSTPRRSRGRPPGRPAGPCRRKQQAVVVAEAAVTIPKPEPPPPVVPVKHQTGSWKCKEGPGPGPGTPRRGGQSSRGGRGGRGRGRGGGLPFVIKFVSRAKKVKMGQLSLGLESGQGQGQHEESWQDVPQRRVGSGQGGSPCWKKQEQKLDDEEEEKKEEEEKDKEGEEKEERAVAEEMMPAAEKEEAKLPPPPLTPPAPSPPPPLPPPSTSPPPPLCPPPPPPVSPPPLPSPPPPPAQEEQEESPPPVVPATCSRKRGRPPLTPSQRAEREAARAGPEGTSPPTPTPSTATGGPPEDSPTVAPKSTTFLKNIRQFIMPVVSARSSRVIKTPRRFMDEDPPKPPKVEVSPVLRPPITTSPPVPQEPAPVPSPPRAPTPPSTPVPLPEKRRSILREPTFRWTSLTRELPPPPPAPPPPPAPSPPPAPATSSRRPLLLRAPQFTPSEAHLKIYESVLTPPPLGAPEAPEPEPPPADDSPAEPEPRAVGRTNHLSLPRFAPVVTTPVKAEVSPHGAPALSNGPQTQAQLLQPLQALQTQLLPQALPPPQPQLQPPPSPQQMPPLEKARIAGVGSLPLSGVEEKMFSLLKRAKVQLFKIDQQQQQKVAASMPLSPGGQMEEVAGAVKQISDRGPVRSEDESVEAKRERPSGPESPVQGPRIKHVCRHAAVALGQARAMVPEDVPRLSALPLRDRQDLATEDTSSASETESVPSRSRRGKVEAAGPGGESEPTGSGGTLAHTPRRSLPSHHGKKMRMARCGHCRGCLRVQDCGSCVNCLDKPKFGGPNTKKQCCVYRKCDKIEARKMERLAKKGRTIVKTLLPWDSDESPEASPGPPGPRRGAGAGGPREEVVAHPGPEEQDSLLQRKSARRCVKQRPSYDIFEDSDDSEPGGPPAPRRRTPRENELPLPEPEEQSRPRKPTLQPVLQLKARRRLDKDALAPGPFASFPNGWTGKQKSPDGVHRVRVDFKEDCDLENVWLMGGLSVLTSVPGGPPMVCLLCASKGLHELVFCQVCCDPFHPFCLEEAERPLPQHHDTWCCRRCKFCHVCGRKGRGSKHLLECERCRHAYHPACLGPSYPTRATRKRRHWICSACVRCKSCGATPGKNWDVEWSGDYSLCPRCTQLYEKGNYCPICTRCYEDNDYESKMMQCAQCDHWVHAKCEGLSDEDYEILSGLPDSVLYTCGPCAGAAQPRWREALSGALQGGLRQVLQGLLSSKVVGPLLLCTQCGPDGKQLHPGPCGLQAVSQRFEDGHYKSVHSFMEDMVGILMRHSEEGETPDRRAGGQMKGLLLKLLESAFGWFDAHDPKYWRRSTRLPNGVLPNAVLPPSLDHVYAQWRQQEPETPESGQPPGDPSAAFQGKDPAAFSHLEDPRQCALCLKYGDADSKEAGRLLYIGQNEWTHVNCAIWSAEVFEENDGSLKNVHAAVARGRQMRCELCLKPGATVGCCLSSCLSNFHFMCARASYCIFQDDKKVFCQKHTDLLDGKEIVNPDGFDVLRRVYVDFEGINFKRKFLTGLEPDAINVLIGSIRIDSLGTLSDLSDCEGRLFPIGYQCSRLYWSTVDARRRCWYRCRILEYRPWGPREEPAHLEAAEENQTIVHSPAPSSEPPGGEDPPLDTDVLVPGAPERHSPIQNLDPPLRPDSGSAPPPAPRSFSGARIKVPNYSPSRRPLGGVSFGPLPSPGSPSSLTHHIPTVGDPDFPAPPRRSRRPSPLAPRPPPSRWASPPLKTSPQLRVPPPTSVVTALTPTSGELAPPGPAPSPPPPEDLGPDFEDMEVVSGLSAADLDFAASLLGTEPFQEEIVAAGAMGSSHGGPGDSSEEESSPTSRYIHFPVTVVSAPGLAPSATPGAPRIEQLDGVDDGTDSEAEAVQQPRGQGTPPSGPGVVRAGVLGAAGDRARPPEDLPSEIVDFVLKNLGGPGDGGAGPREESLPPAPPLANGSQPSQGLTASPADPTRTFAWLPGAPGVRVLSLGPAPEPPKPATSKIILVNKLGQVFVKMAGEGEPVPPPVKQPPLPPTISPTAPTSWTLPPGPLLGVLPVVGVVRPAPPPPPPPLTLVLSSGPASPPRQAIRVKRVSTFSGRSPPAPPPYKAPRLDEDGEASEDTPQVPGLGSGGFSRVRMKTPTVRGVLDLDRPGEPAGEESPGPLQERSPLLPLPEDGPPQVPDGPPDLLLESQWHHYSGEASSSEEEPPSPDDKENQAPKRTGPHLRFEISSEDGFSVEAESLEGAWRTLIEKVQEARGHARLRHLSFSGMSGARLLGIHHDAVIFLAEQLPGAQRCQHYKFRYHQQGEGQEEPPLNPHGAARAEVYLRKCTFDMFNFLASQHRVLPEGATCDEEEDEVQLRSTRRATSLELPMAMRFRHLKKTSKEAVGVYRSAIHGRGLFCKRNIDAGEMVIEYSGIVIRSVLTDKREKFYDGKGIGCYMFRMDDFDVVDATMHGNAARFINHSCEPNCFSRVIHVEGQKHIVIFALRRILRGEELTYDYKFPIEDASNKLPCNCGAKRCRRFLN

pIC50 (METTL3/METTL14 [1]): > 8.00 | pIC50 (MOLM-13 [2]): > 5.00 | pIC50 [3]: > 6.00
SMILES: CCc1cc(N(C)CCOC)c2ccc(CCc3cncc(-n4cc(-c5ccn(C)n5)c5c(N)ncnc54)c3)cc2n1

pIC50 (OCI-AML2): 5.75 | pIC50 (NOMO-1): 6.22 | pIC50 (Kasumi 1 [5]): 6.15 | pIC50 (EOL1): 5.71 | pIC50 (HL-60 [6]): 4.99 | pIC50 (MOLM-13 [7]): 5.98 | pIC50 (OCI-AML-3): 5.49
SMILES: O=C(NCc1cn2cc(CNCC3CCCCC3)ccc2n1)c1cc(=O)n2ccccc2n1

pIC50 (METTL3/METTL14 [1]): > 8.00 | pIC50 (MOLM-13 [2]): > 5.00 | pIC50 [3]: > 6.00
SMILES: CNc1ccc2ccc(OCc3cncc(-n4cc([C@@H]5CCCO5)c5c(N)ncnc54)c3)cc2n1

inhibition [10]: 23.3%
SMILES: CC1=NN(c2ccc(C)c(C)c2)C(=O)/C1=N\Nc1cccc(-c2ccccc2)c1O

pEC50 (MOLM-13 [11]): 4.52 | pIC50 (METTL3/METTL14 [12]): 5.56
SMILES: O=C(O)c1ccccc1OCCc1cn(-c2cccc(-c3ccccc3)c2)c2ccc(-c3ccc(F)cc3)cc12

pIC50 (METTL3/METTL14 [12]): 4.89
SMILES: O=C(O)c1ccccc1OCCc1cn(C(c2ccccc2)c2ccccc2)c2ccc(Cl)cc12

pEC50 (MOLM-13 [11]): 4.49 | pIC50 (METTL3/METTL14 [12]): 5.53
SMILES: O=C(O)c1ccccc1OCCc1cn(-c2ccc(-c3ccccc3)cc2)c2ccc(-c3ccc(F)cc3)cc12

GI50 (HL-60 [14]): 15.5 µM | pIC50 (METTL3/METTL14 [15]): 5.31 | GI50 (MOLM-13 [16]): 14.6 µM | pEC50 (MOLM-13 [11]): 4.84 | GI50 (MOLM-14): 13.1 µM | GI50 (THP-1): 21.6 µM
SMILES: O=C(O)c1ccccc1OCCc1cn(-c2ccc(-c3c(Cl)cccc3Cl)cc2)c2ccc(-c3ccc(F)cc3)cc12

inhibition [17]: 29% | pIC50 (METTL3/METTL14 [18]): 5.44 | inhibition [19]: 30%
SMILES: CC1=NN(c2ccc(C)c(C)c2)C(=O)/C1=N\Nc1cccc(-c2cccc(C(=O)O)c2)c1O [ELTROMBOPAG]

Continued, molecule first:

SMILES: Cn1ccc(-c2cn([C@@H]3O[C@H](COc4ccc5ccc(N6CCC6)nc5c4)[C@@H](O)[C@@H]3F)c3ncnc(N)c23)n1
pIC50 (METTL3/METTL14 [1]): > 8.00 | pIC50 (MOLM-13 [2]): > 5.00 | pIC50 [3]: > 6.00 | pIC50 (MOLM-13 [4]): > 5.00

SMILES: O=c1cc(-c2ccc(O)c(O)c2)oc2cc(O)cc(O)c12 [LUTEOLIN]
pIC50 (METTL3/METTL14 [8]): 5.21

SMILES: COc1cc(-c2cn(Cc3cn4cc(CNCC5CCC5)ccc4n3)nn2)c2cn[nH]c2c1
pIC50 (METTL3/METTL14 [9]): 8.44

SMILES: Nc1ncnc2c1c(-n1cccn1)cn2[C@H]1C[C@H](O)[C@@H](COc2ccc3ccc(N4CCC4)nc3c2)O1
pIC50 (METTL3/METTL14 [1]): > 8.00 | pIC50 (MOLM-13 [2]): > 5.00 | pIC50 [3]: > 6.00 | pIC50 (MOLM-13 [4]): > 5.00

SMILES: Cc1coc(-c2cn([C@@H]3O[C@H](COc4ccc5ccc(N6CCC6)nc5c4)[C@@H](O)[C@@H]3F)c3ncnc(N)c23)n1
pIC50 (METTL3/METTL14 [1]): > 8.00 | pIC50 (MOLM-13 [2]): > 5.00 | pIC50 (MOLM-13 [4]): > 5.00

SMILES: Nc1ncnc2c1c(Br)cn2[C@@H]1C[C@H](c2ccc3cc(CN4CCC5(CCC5)C4)[nH]c3c2)[C@@H](O)[C@H]1O (single isomer, unassigned)
pIC50 (Kasumi 1 [13]): 6.02 | pIC50 (Caov-3 cell line): 6.60

SMILES: Nc1ncnc2c1c(Cl)cn2[C@@H]1C[C@H](c2ccc3cc(CNCC45CC(F)(C4)C5)[nH]c3c2)[C@@H](O)[C@H]1O
pIC50 (Kasumi 1 [13]): 6.02 | pIC50 (Caov-3 cell line): 6.60

SMILES: Cn1ccc(-c2cn([C@H]3C[C@H](O)[C@@H](COc4ccc5ccc(N6CCC6)nc5c4)O3)c3ncnc(N)c23)n1
pIC50 (METTL3/METTL14 [1]): > 8.00 | pIC50 (MOLM-13 [2]): > 5.00 | pIC50 [3]: > 6.00 | pIC50 (MOLM-13 [4]): > 5.00

SMILES: Nc1ncnc2c1c(Br)cn2[C@@H]1C[C@H](c2ccc3cc(CNCC45CC(F)(C4)C5)[nH]c3c2)[C@@H](O)[C@H]1O
pIC50 (Kasumi 1 [13]): 6.02 | pIC50 (Caov-3 cell line): 6.60 | pIC50 (METTL3/METTL14 [9]): > 8.22

SMILES: Cn1ccc(-c2cn([C@@H]3O[C@H](COc4ccc5ccc(NC6CCC6)nc5c4)[C@@H](O)[C@@H]3F)c3ncnc(N)c23)n1
pIC50 (METTL3/METTL14 [1]): > 8.00 | pIC50 (MOLM-13 [2]): > 5.00 | pIC50 [3]: > 6.00 | pIC50 (MOLM-13 [4]): > 5.00

SMILES: Nc1ncnc2c1c(-n1cccn1)cn2[C@@H]1O[C@H](COc2ccc3ccc(N4CCC4)nc3c2)[C@@H](O)[C@@H]1F
pIC50 (METTL3/METTL14 [1]): > 8.00 | pIC50 (MOLM-13 [2]): > 5.00 | pIC50 (MOLM-13 [4]): > 5.00
